Values after ≈ are worked out from the molar mass of the structure shown. Where two headings read alike, the source gives them in different places.
System: Mycobacterium tuberculosis H37Rv
Experiment: Susceptibility testing against Mycobacterium tuberculosis H37Rv (broth microdilution, resazurin readout)
Assay type: cell-based
Details: M. tuberculosis H37Rv, 7 days at 37° C., resazurin fluorescence; for MIC99: Gomperz fit, read-out: MIC99 (μM) M. tub H37Rv; for MIC50: read-out: MIC50 (μM) M. tub H37Rv
[1] = Mycobacterium tuberculosis, 168 h

Which results are given for Brc1cc(Br)cc(C2CC(CNC3CC3)N2Cc2ccccc2Br)c1 (racemic) [Azet 1, rac-N-(((2,4-cis)-1-(2-bromobenzyl)-4-(3,5-dibromophenyl)azetidin-2-yl)methyl)cyclopropana-mine]?
MIC99 [1]: 51.8 µM (≈ 27.4 µg/mL); MIC50 [1]: 11.8 µM (≈ 6.24 µg/mL)

With CN(C)CC1CC(c2cc(Br)cc(Br)c2)N1Cc1ccccc1Br (racemic) [Azet 2, rac-1-((2,4-cis)-1-(2-bromobenzyl)-4-(3,5-dibromophenyl)azetidin-2-yl)-N,N-dimethylmethanamine] as the molecule, how does the MIC50 [1] read?
Its MIC50 is 5.6 µM (≈ 2.9 µg/mL).

Which MIC50 [1] does the source give for C#CCNCC1CC(c2cc(Br)cc(Br)c2)N1Cc1ccccc1Br (racemic) [Azet 3, rac-N-(((2,4-cis)-1-(2-bromobenzyl)-4-(3,5-dibromophenyl)azetidin-2-yl)methyl)prop-2-yn-1-amine] here?
The MIC50 was 22.8 µM (≈ 12 µg/mL).

What does the source list for CN(C)CC1CC(c2cc(C(F)(F)F)cc(C(F)(F)F)c2)N1Cc1ccccc1Br (racemic) [Azet 4, rac-1-((2,4-cis)-4-(3,5-bis(trifluoromethyl)phenyl)-1-(2-bromobenzyl)azetidin-2-yl)-N,N-dimethylmethanamine]?
MIC99 [1]: 7.3 µM (≈ 3.62 µg/mL); MIC50 [1]: 6.59 µM (≈ 3.26 µg/mL)

What does the source list for CN(C)CC1CC(c2ccc(OC(F)(F)F)cc2)N1Cc1ccccc1OC(F)(F)F (racemic) [Azet 5, rac-N,N-dimethyl-1-((2,4- cis)-1-(2-(trifluoromethoxy)benzyl)-4-(4-(trifluoromethoxy)phenyl)azetidin-2-yl)methanamine]?
MIC99 [1]: 12 µM (≈ 5.38 µg/mL); MIC50 [1]: 9.9 µM (≈ 4.44 µg/mL)

How did the MIC99 [1] turn out when FC(F)(F)Oc1ccc(C2CC(CNC3CC3)N2Cc2ccccc2OC(F)(F)F)cc1 (racemic) [Azet 18, rac-N-(((2,4-cis)-1-(2-(trifluoromethoxy)benzyl)-4-(4-(trifluoromethoxy)phenyl)azetidin-2-yl)methyl)cyclopropana-mine] was run?
Its MIC99 is 13 µM (≈ 5.99 µg/mL).

What about the MIC50 [1] of the same molecule?
Its MIC50 is 11.9 µM (≈ 5.48 µg/mL).

With CNCC1CC(c2ccc(OC(F)(F)F)cc2)N1Cc1ccccc1OC(F)(F)F (racemic) [Azet 19, rac-N-methyl-1-((2,4-cis)-1-(2-(trifluoromethoxy)benzyl) (trifluoromethoxy)phenyl) azetidin-2-yl)methanamine] as the molecule, how does the MIC99 [1] read?
The MIC99 was 7.2 µM (≈ 3.13 µg/mL).

What about the MIC50 [1] of the same molecule?
Its MIC50 is 4.5 µM (≈ 1.95 µg/mL).

COCCNCC1CC(c2ccc(OC(F)(F)F)cc2)N1Cc1ccccc1OC(F)(F)F (racemic) [Azet 20, rac-2-methoxy-N-(((2,4- cis)-1-(2-(trifluoromethoxy)benzyl)-4-(4-(trifluoromethoxy)phenyl)azetidin-2-yl)methyl)ethan-1-amine] was tested. Which MIC99 [1] did it give?
Its MIC99 is 18 µM (≈ 8.61 µg/mL).

And the MIC50 [1]?
The MIC50 was 11 µM (≈ 5.26 µg/mL).

Which MIC99 [1] does the source give for CC(C)NCC1CC(c2ccc(OC(F)(F)F)cc2)N1Cc1ccccc1Br (racemic) [Azet 29, rac-N-(((2,4-cis)-1-(2-bromobenzyl)-4-(4-(trifluoromethoxy)phenyl)azetidin-2-yl)methyl)propan-2-amine] here?
The MIC99 was 24.5 µM (≈ 11.2 µg/mL).

What about the MIC50 [1] of the same molecule?
Its MIC50 is 9.85 µM (≈ 4.5 µg/mL).

Which MIC99 [1] does the source give for CC(C)NCC1CC(c2ccccc2)N1Cc1ccccc1OC(F)(F)F (racemic) [Azet 30, rac-N-(((2,4-cis)-4-phenyl-1-(2-(trifluoromethoxy)benzyl)azetidin-2-yl)methyl)propan-2-amine] here?
The MIC99 was 48.9 µM (≈ 18.5 µg/mL).

And the MIC50 [1]?
The MIC50 was 21.1 µM (≈ 7.99 µg/mL).

CC(C)NCC1CC(c2ccc(OC(F)(F)F)cc2)N1Cc1ccccc1OC(F)(F)F (racemic) [Azet 31, rac-N-(((2,4-cis)-1-(2-(trifluoromethoxy)benzyl)-4-(4-(trifluoromethoxy)phenyl)azetidin-2-yl)methyl)propan-2-amine] was tested. Which MIC99 [1] did it give?
The MIC99 was 26.4 µM (≈ 12.2 µg/mL).

What about the MIC50 [1] of the same molecule?
The MIC50 was 8.89 µM (≈ 4.11 µg/mL).

For Clc1cc(Cl)cc(C2CC(CN3CCCC3)N2Cc2ccccc2Br)c1 (racemic) [Azet 32, rac-1-(((2,4-cis)-1-(2-bromobenzyl)-4-(3,5-dichlorophenyl)azetidin-2-yl)methyl)pyrrolidine], which MIC99 [1] is on record?
Its MIC99 is 9.21 µM (≈ 4.18 µg/mL).

And the MIC50 [1]?
Its MIC50 is 7.58 µM (≈ 3.44 µg/mL).

Which MIC99 [1] does the source give for FC(F)(F)c1cc(C2CC(CN3CCCC3)N2Cc2ccccc2Br)cc(C(F)(F)F)c1 (racemic) [Azet 33, rac-1-(((2,4-cis)-4-(3,5-bis(trifluoromethyl)phenyl)-1-(2-bromobenzyl)azetidin-2-yl)methyl)pyrrolidine] here?
Its MIC99 is 3.29 µM (≈ 1.72 µg/mL).

What about the MIC50 [1] of the same molecule?
The MIC50 was 6.93 µM (≈ 3.61 µg/mL).

Brc1cc(Br)cc(C2CC(CN3CCCC3)N2Cc2ccccc2Br)c1 (racemic) [Azet 34, rac-1-(((2,4-cis)-1-(2-bromobenzyl)-4-(3,5-dibromophenyl)azetidin-2-yl)methyl)pyrrolidine] was tested. Which MIC99 [1] did it give?
The MIC99 was 3.26 µM (≈ 1.77 µg/mL).

And the MIC50 [1]?
Its MIC50 is 7.03 µM (≈ 3.82 µg/mL).

Which MIC99 [1] does the source give for FC(F)(F)Oc1ccc(C2CC(CN3CCC(c4ccc(C(F)(F)F)cc4)CC3)N2Cc2ccccc2Br)cc1 (racemic) [Azet 39, rac-1-(((2,4-cis)-1-(2-bromobenzyl)-4-(4-(trifluoromethoxy)phenyl)azetidin-2-yl)methyl)-4-(4-(trifluoromethyl)phenyl)pi-peridine] here?
Its MIC99 is 90.9 µM (≈ 57 µg/mL).

And the MIC50 [1]?
The MIC50 was 85 µM (≈ 53.3 µg/mL).

What does the source list for COc1ccc(C2CC(CN3CCCC3)N2Cc2ccccc2Br)cc1 (racemic) [Azet 42, rac-1-(((2,4-cis)-1-(2-bromobenzyl)-4-(4-methoxyphenyl)azetidin-2-yl)methyl)pyrrolidine]?
MIC99 [1]: 42.6 µM (≈ 17.7 µg/mL); MIC50 [1]: 20.8 µM (≈ 8.64 µg/mL)

COc1ccccc1CN1C(CN2CCCC2)CC1c1ccc(Br)cc1 (racemic) [Azet 48, rac-1-(((2,4-cis)-4-(4-bromophenyl)-1-(2-methoxybenzyl)azetidin-2-yl)methyl)pyrrolidine] was tested. Which MIC50 [1] did it give?
The MIC50 was 20.3 µM (≈ 8.43 µg/mL).

For FC(F)(F)c1ccccc1CN1C(CN2CCCC2)CC1c1ccccc1C(F)(F)F (racemic) [Azet 49, rac-1-(((2,4-cis)-1-(2-(trifluoromethyl)benzyl)-4-(2-(trifluoromethyl)phenyl)a-zetidin-2-yl)methyl)pyrrolidine], which MIC50 [1] is on record?
Its MIC50 is 6.68 µM (≈ 2.96 µg/mL).

With FC(F)(F)c1cccc(C2CC(CN3CCCC3)N2Cc2ccccc2C(F)(F)F)c1 (racemic) [Azet 50, rac-1-(((2,4-cis)-1-(2-(trifluoromethyl)benzyl)-4-(3-(trifluoromethyl)phenyl)a-zetidin-2-yl)methyl)pyrrolidine] as the molecule, how does the MIC50 [1] read?
Its MIC50 is 7.04 µM (≈ 3.11 µg/mL).

With FC(F)(F)c1ccc(C2CC(CN3CCCC3)N2Cc2ccccc2C(F)(F)F)cc1 (racemic) [Azet 51, rac-1-(((2,4-cis)-1-(2-(trifluoromethyl)benzyl)-4-(4-(trifluoromethyl)phenyl)a-zetidin-2-yl)methyl)pyrrolidine] as the molecule, how does the MIC50 [1] read?
The MIC50 was 8.31 µM (≈ 3.68 µg/mL).

How did the MIC50 turn out when CC(C)(C)c1ccc(C2CC(CN3CCCC3)N2Cc2ccccc2C(F)(F)F)cc1 (racemic) [Azet 52, rac-1-(((2,4-cis)-4-(4-(tert-butyl)phenyl)-1-(2-(trifluoromethyl)benzyl)a-zetidin-2-yl)methyl)pyrrolidine] was run?
Its MIC50 is 8.62 µM (≈ 3.71 µg/mL).

Which MIC50 [1] does the source give for COc1ccccc1CN1C(CN2CCCC2)CC1c1ccc(Cl)cc1 (racemic) [Azet 53, rac-1-(((2,4-cis)-4-(4-chlorophenyl)-1-(2-methoxybenzyl)azetidin-2-yl)methyl)pyrrolidine] here?
Its MIC50 is 10.3 µM (≈ 3.82 µg/mL).

With COc1ccccc1CN1C(CN2CCCC2)CC1c1cccc(Cl)c1 (racemic) [Azet 54, rac-1-(((2,4-cis)-4-(3-chlorophenyl)-1-(2-methoxybenzyl)azetidin-2-yl)methyl)pyrrolidine] as the molecule, how does the MIC50 [1] read?
Its MIC50 is 11.7 µM (≈ 4.34 µg/mL).

Which MIC50 [1] does the source give for COc1ccccc1CN1C(CN2CCCC2)CC1c1ccccc1Cl (racemic) [Azet 55, rac-1-(((2,4-cis)-4-(2-chlorophenyl)-1-(2-methoxybenzyl)azetidin-2-yl)methyl)pyrrolidine] here?
The MIC50 was 27.6 µM (≈ 10.2 µg/mL).

With FC(F)(F)Oc1ccccc1CN1C(CN2CCCC2)CC1c1ccccc1OC(F)(F)F (racemic) [Azet 57, rac-1-(((2,4-cis)-1-(2-(trifluoromethoxy)benzyl) (trifluoromethoxy)phenyl)azetidin-2-yl)methyl)pyrrolidine] as the molecule, how does the MIC50 [1] read?
Its MIC50 is 7.05 µM (≈ 3.34 µg/mL).

Which MIC50 [1] does the source give for FC(F)(F)Oc1cccc(C2CC(CN3CCCC3)N2Cc2ccccc2OC(F)(F)F)c1 (racemic) [Azet 58, rac-1-(((2,4-cis)-1-(2-(trifluoromethoxy)benzyl) (trifluoromethoxy)phenyl)azetidin-2-yl)methyl)pyrrolidine] here?
Its MIC50 is 9.14 µM (≈ 4.34 µg/mL).

FC(F)(F)Oc1ccc(C2CC(CN3CCCC3)N2Cc2ccccc2OC(F)(F)F)cc1 (racemic) [Azet 59, rac-1-(((2,4-cis)-1-(2-(trifluoromethoxy)benzyl)-4-(4-(trifluoromethoxy)phenyl)azetidin-2-yl)methyl)pyrrolidine] was tested. Which MIC99 [1] did it give?
Its MIC99 is 6.25 µM (≈ 2.97 µg/mL).

And the MIC50 [1]?
Its MIC50 is 9.42 µM (≈ 4.47 µg/mL).

Which MIC50 [1] does the source give for FC(F)(F)Oc1ccccc1CN1C(CN2CCCC2)CC1c1ccccc1 (racemic) [Azet 61, rac-1-(((2,4-cis)-4-phenyl-1-(2-(trifluoromethoxy)benzyl)azetidin-2-yl)methyl)pyrrolidine] here?
The MIC50 was 17.9 µM (≈ 6.99 µg/mL).

For Cc1ccccc1CN1C(CN2CCCC2)CC1c1ccccc1 (racemic) [Azet 62, rac-1-(((2,4-cis)-1-(2-methylbenzyl)-4-phenylazetidin-2-yl)methyl)pyrrolidine], which MIC50 [1] is on record?
Its MIC50 is 37 µM (≈ 11.9 µg/mL).

FC(F)(F)c1ccccc1CN1C(CN2CCCC2)CC1c1ccccc1 (racemic) [Azet 63, rac-1-(((2,4-cis)-4-phenyl-1-(2-(trifluoromethyl)benzyl)a-zetidin-2-yl)methyl)pyrrolidine] was tested. Which MIC50 [1] did it give?
The MIC50 was 22.7 µM (≈ 8.5 µg/mL).

Reference: US20220096437A1, “ANTIBACTERIAL COMPOUNDS” (The University of Birmingham, priority 2019, published 2022)
